Test results from ChEMBL document CHEMBL1201862, “PubChem BioAssay data set” (2004).
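Interpolation was linear, between the two tested concentrations surrounding the appropriate level; five concentrations were tested over 48 hours in 96-well plates. GI50 is the concentration that inhibits growth by half.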 Active and inactive are the calls of the source. Rule as the data show it: active = GI50 up to about 1.1 µM and inactive = higher.

Legend:
Test in all cases: DTP human tumour cell line panel, 48 h
CAKI-1 = test system: CAKI-1
Malme-3M = test system: Malme-3M
OVCAR-5 = test system: OVCAR-5
A549 = test system: A549
SF-539 = test system: SF-539
NCI-H23 = test system: NCI-H23
EKVX = test system: EKVX
MOLT-4 = test system: MOLT-4
A498 = test system: A498
UACC-257 = test system: UACC-257
ACHN = test system: ACHN
IGROV-1 = test system: IGROV-1
HL-60 = test system: HL-60
PC-3 = test system: PC-3
NCI/ADR-RES = test system: NCI/ADR-RES
T47D = test system: T47D
HCT-116 = test system: HCT-116
NCI-H460 = test system: NCI-H460
UACC-62 = test system: UACC-62
HCC 2998 = test system: HCC 2998

Measured: GI50

NCC1OC(n2cnc3c(=O)[nH]c(N)nc32)C(O)C1O (stereo not given)
inactive: CAKI-1 > 100 µM | Malme-3M > 100 µM | OVCAR-5 > 100 µM | A549 > 100 µM | SF-539 > 100 µM | NCI-H23 > 100 µM | EKVX > 100 µM | MOLT-4 > 100 µM | A498 > 100 µM | UACC-257 > 100 µM | ACHN > 100 µM | IGROV-1 > 100 µM | HL-60 > 100 µM | PC-3 > 100 µM | NCI/ADR-RES > 100 µM | T47D 97.1 µM | HCT-116 > 100 µM | NCI-H460 > 100 µM | UACC-62 > 100 µM

NC(=O)C1CCCNC1 (stereo not given)
inactive: CAKI-1 > 100 µM | Malme-3M > 100 µM | OVCAR-5 > 100 µM | A549 > 100 µM | SF-539 > 100 µM | NCI-H23 > 100 µM | EKVX > 100 µM | MOLT-4 24.3 µM | A498 > 100 µM | ACHN > 100 µM | IGROV-1 > 100 µM | HL-60 > 100 µM | PC-3 > 100 µM | NCI/ADR-RES > 100 µM | T47D > 100 µM | HCT-116 > 100 µM | NCI-H460 > 100 µM | UACC-62 > 100 µM

CCOP(=O)(OCC)c1cc2cc(O)ccc2oc1=O
inactive: CAKI-1 > 100 µM | OVCAR-5 > 100 µM | A549 > 100 µM | SF-539 > 100 µM | NCI-H23 > 100 µM | EKVX > 100 µM | A498 > 100 µM | UACC-257 > 100 µM | ACHN > 100 µM | IGROV-1 > 100 µM | HL-60 > 100 µM | HCC 2998 > 100 µM | PC-3 > 100 µM | NCI/ADR-RES > 100 µM | T47D > 100 µM | HCT-116 > 100 µM | NCI-H460 > 100 µM | UACC-62 > 100 µM

COc1cc(C(c2cccc3ccccc23)N2C(=O)CCC2C(=O)O)cc(OC)c1OC (stereo not given)
inactive: CAKI-1 > 100 µM | Malme-3M > 100 µM | OVCAR-5 > 100 µM | A549 > 100 µM | SF-539 > 100 µM | NCI-H23 > 100 µM | EKVX > 100 µM | MOLT-4 > 100 µM | A498 > 100 µM | UACC-257 > 100 µM | ACHN > 100 µM | IGROV-1 > 100 µM | HL-60 > 100 µM | PC-3 > 100 µM | NCI/ADR-RES > 100 µM | T47D > 100 µM | HCT-116 > 100 µM | NCI-H460 > 100 µM | UACC-62 > 100 µM

CSc1c(CC(=O)O)n(Cc2ccccc2)c2ccccc12
inactive: CAKI-1 > 100 µM | Malme-3M > 100 µM | OVCAR-5 > 100 µM | A549 35.8 µM | SF-539 > 100 µM | NCI-H23 > 100 µM | EKVX 74.5 µM | MOLT-4 > 100 µM | A498 > 100 µM | UACC-257 > 100 µM | ACHN > 100 µM | IGROV-1 > 100 µM | HL-60 > 100 µM | PC-3 > 100 µM | NCI/ADR-RES > 100 µM | T47D 91.6 µM | HCT-116 > 100 µM | NCI-H460 60.8 µM | UACC-62 81.3 µM

COc1ccc(CCCCl)c(C2=NCCc3ccccc32)c1
inactive: CAKI-1 > 100 µM | OVCAR-5 > 100 µM | A549 44.2 µM | SF-539 35.8 µM | NCI-H23 11.1 µM | EKVX 37.7 µM | MOLT-4 32.4 µM | A498 > 100 µM | UACC-257 34.7 µM | ACHN > 100 µM | IGROV-1 24.8 µM | HL-60 10.4 µM | HCC 2998 23.4 µM | PC-3 19.5 µM | NCI/ADR-RES > 100 µM | T47D 32.9 µM | HCT-116 29.5 µM | NCI-H460 36.4 µM | UACC-62 84.5 µM

O=C(O)Cc1ccc(Nc2nc3cc(C(F)(F)F)ccc3nc2C(=O)O)cc1
inactive: CAKI-1 > 100 µM | Malme-3M > 100 µM | OVCAR-5 > 100 µM | A549 > 100 µM | SF-539 > 100 µM | NCI-H23 > 100 µM | EKVX > 100 µM | MOLT-4 > 100 µM | A498 > 100 µM | UACC-257 > 100 µM | ACHN > 100 µM | IGROV-1 > 100 µM | HL-60 > 100 µM | PC-3 > 100 µM | NCI/ADR-RES > 100 µM | T47D > 100 µM | HCT-116 > 100 µM | NCI-H460 > 100 µM | UACC-62 > 100 µM

Nc1nc(O)c(Br)c(-c2cccc([N+](=O)[O-])c2)n1
inactive: CAKI-1 58.5 µM | OVCAR-5 > 69.8 µM | A549 > 46.9 µM | SF-539 > 58.1 µM | NCI-H23 40.9 µM | EKVX > 100 µM | MOLT-4 > 77.4 µM | A498 > 100 µM | UACC-257 > 55 µM | ACHN > 67.9 µM | IGROV-1 > 83.8 µM | HL-60 > 71.1 µM | HCC 2998 > 100 µM | PC-3 > 100 µM | NCI/ADR-RES > 100 µM | T47D 91 µM | HCT-116 > 100 µM | NCI-H460 > 81.8 µM | UACC-62 > 51.9 µM
